Values quoted from earlier work, collected in patent US9999632B2, “Inhibition of pancreatic lipase” (RD Biomed Limited, priority 2009, dated 2018).

Conditions: patients treated with Orlistat; cited from earlier work

## CCCCCCCCCCC[C@@H](C[C@@H]1OC(=O)[C@H]1CCCCCC)OC(=O)[C@H](CC(C)C)NC=O [Orlistat, tetrahydrolipstatin]
  patients affected by adverse effects (steatorrhoea, bloating, oily spotting, faecal urgency, faecal incontinence): up to 40 % of patients
